Experimental data published in patent US8710083B2, “Pyridylphenyl compounds for inflammation and immune-related uses” (Synta Pharmaceuticals Corp., priority 2006, dated 2014).
Where a name gives a salt, the structure may show the parent alone.

Tested on: IL-2 production
Test: Inhibition of IL-2 production in PHA-activated Jurkat cells (ELISA)
Assay type: cell-based
Conditions: Homo sapiens, Jurkat, 20 h, PHA 2.5 μg/mL, IL-2 ELISA
Description: Jurkat cells were placed in a 96 well plate (0.5 million cells per well in 1% FBS medium) then a test compound of this invention was added at different concentrations. After 10 minutes, the cells were activated with PHA (final concentration 2.5 μg/mL) and incubated for 20 hours at 37° C. under CO2. The final volume was 200 μL. Following incubation, the cells were centrifuged and the supernatants collected and stored at −70° C. prior to assaying for IL-2 production. A commercial ELISA kit (IL-2 Eli-pair, Diaclone Research, Besancon, France) was used to detect production of IL-2, from which dose response curves were obtained. The IC50 value was calculated as the concentration at which 50% of maximum IL-2 production after stimulation was inhibited versus a non-stimulation control.

| SMILES | IC50 [nM] |
| --- | --- |
| COc1ccc(-c2cnco2)cc1-c1ccc(NC(=O)c2snnc2C)nc1 [Compound 67, N-(5-(2-methoxy-5-(oxazol-5-yl)phenyl)pyridin-2-yl)-4-methyl-1,2,3-thiadiazole-5-carboxamide] | 7 |
| Cc1nnsc1C(=O)Nc1ccc(-c2cc(-c3ncco3)ccc2Cl)cn1 [Compound 19, 4-Methyl-[1,2,3]thiadiazole-5-carboxylic acid [5-(2-chloro-5-oxazol-2-yl-phenyl)-pyridin-2-yl]-amide] | 7 |
| Cc1cc(NC(=O)c2c(F)cccc2F)ncc1-c1cccc(C(F)(F)F)c1 [Compound 14, 2,6-Difluoro-N-[4-methyl-5-(3-trifluoromethyl-phenyl)-pyridin-2-yl]-benzamide] | 16 |
| Cc1nnsc1C(=O)Nc1ccc(-c2cc(-c3nccs3)ccc2Cl)cn1 [Compound 17, 4-Methyl-[1,2,3]thiadiazole-5-carboxylic acid [5-(2-chloro-5-thiazol-2-yl-phenyl)-pyridin-2-yl]-amide] | 2 |
| Cc1ccc(-c2cnco2)cc1-c1ccc(NC(=O)c2c(F)cccc2F)nc1 [Compound 70, 2,6-difluoro-N-(5-(2-methyl-5-(oxazol-5-yl)phenyl)pyridin-2-yl)benzamide] | 9 |
| Cc1ccc(-c2ncco2)cc1-c1ccc(NC(=O)c2ccc(Cl)cc2F)cn1 [Compound 80, 4-chloro-2-fluoro-N-(6-(2-methyl-5-(oxazol-2-yl)phenyl)pyridin-3-yl)benzamide] | 180 |
| Cc1nnsc1C(=O)Nc1ccc(-c2cc(C(F)(F)F)ccc2Cl)cn1 [Compound 16, 4-Methyl-[1,2,3]thiadiazole-5-carboxylic acid [5-(2-chloro-5-trifluoromethyl-phenyl)-pyridin-2-yl]-amide] | 15 |
| Cc1ccc(-c2ncco2)cc1-c1ccc(NC(=O)c2c(F)cccc2F)cn1 [Compound 20, 2,6-Difluoro-N-[6-(2-methyl-5-oxazol-2-yl-phenyl)-pyridin-3-yl]-benzamide hydrochloride] | 12 |
| COC(=O)c1ccc(C)c(-c2ccc(NC(=O)c3c(F)cccc3F)nc2)c1 [Compound 7, 3-[6-(2,6-Difluoro-benzoylamino)-pyridin-3-yl]-4-methyl-benzoic acid methyl ester] | 4 |
| Cc1ccc(-c2cnco2)cc1-c1ccc(NC(=O)c2snnc2C)nc1 [Compound 21, 4-methyl-N-(5-(2-methyl-5-(oxazol-5-yl)phenyl)pyridin-2-yl)-1,2,3-thiadiazole-5-carboxamide] | 31 |
| Cc1ccc(-c2nnco2)cc1-c1ccc(NC(=O)c2c(F)cccc2F)nc1 [Compound 69, 2,6-difluoro-N-(5-(2-methyl-5-(1,3,4-oxadiazol-2-yl)phenyl)pyridin-2-yl)benzamide] | 73 |
| Cc1ccc(-c2cnco2)cc1-c1ccc(NC(=O)c2c(F)cccc2F)cn1 [Compound 78, 2,6-Difluoro-N-(6-(2-methyl-5-(oxazol-5-yl)phenyl)pyridin-3-yl)benzamide] | 10 |
| Cc1ccc(-c2ccno2)cc1-c1ccc(NC(=O)c2snnc2C)nc1 [Compound 68, N-(5-(5-(isoxazol-5-yl)-2-methylphenyl)pyridin-2-yl)-4-methyl-1,2,3-thiadiazole-5-carboxamide] | 38 |
| O=C(Nc1ccc(-c2cc(-c3nccs3)ccc2Cl)nc1)c1c(F)cccc1F [Compound 72, N-(6-(2-chloro-5-(thiazol-2-yl)phenyl)pyridin-3-yl)-2,6-difluorobenzamide] | 17 |
| O=C(Nc1ccc(-c2cc(-c3ncco3)ccc2Cl)nc1)c1c(F)cccc1F [Compound 76, N-(6-(2-chloro-5-(oxazol-2-yl)phenyl)pyridin-3-yl)-2,6-difluorobenzamide] | 9 |
| Cc1ccc(-c2nccs2)cc1-c1ccc(NC(=O)c2c(F)cccc2F)cn1 [Compound 74, 2,6-Difluoro-N-(6-(2-methyl-5-(thiazol-2-yl)phenyl)pyridin-3-yl)benzamide] | 25 |
| O=C(Nc1ccc(-c2cc(-c3nccs3)ccc2Cl)cn1)c1c(F)cccc1F [Compound 10, N-[5-(2-Chloro-5-thiazol-2-yl-phenyl)-pyridin-2-yl]-2,6-difluoro-benzamide] | 2 |
| COC(=O)c1ccc(Cl)c(-c2ccc(NC(=O)c3c(F)cccc3F)nc2)c1 [Compound 6, 4-Chloro-3-[6-(2,6-difluoro-benzoylamino)-pyridin-3-yl]-benzoic acid methyl ester] | 6 |
| O=C(Nc1ccc(-c2cc(-c3ncco3)ccc2Cl)cn1)c1c(F)cccc1F [Compound 8, N-[5-(2-Chloro-5-oxazol-2-yl-phenyl)-pyridin-2-yl]-2,6-difluoro-benzamide] | 3 |
| Cc1ccc(-c2ncco2)cc1-c1ccc(NC(=O)c2snnc2C)nc1 [Compound 18, 4-Methyl-[1,2,3]thiadiazole-5-carboxylic acid [5-(2-methyl-5-oxazol-2-yl-phenyl)-pyridin-2-yl]-amide] | 12 |
| Cc1nc(NC(=O)c2c(F)cccc2F)ccc1-c1cccc(C(F)(F)F)c1 [Compound 15, 2,6-Difluoro-N-[6-methyl-5-(3-trifluoromethyl-phenyl)-pyridin-2-yl]-benzamide] | 98 |
| Cc1ccc(-c2nnco2)cc1-c1ccc(NC(=O)c2c(F)cccc2F)cn1 [Compound 75, 2,6-Difluoro-N-(6-(2-methyl-5-(1,3,4-oxadiazol-2-yl)phenyl)pyridin-3-yl)benzamide] | 98 |
| O=C(Nc1ccc(-c2cc(-c3nnco3)ccc2Cl)cn1)c1c(F)cccc1F [Compound 71, N-(5-(2-chloro-5-(1,3,4-oxadiazol-2-yl)phenyl)pyridin-2-yl)-2,6-difluorobenzamide] | 17 |

Same assay, conditions: PHA 2.5 μg/mL, 20 hours, IL-2 ELISA

| SMILES | IC50 [nM] |
| --- | --- |
| O=C(Nc1ccc(-c2cc(-c3ncco3)ccc2Cl)nc1)c1c(F)cccc1F [Compound 77, N-(6-(2-chloro-5-(oxazol-2-yl)phenyl)pyridin-3-yl)-2,6-difluorobenzamide hydrochloric acid salt] | 11 |
| Cc1ccc(-c2ncco2)cc1-c1ccc(NC(=O)c2c(F)cccc2F)cn1 [Compound 13, 2,6-Difluoro-N-[6-(2-methyl-5-oxazol-2-yl-phenyl)-pyridin-3-yl]-benzamide] | 14 |
